Data set [1] addresses PI3-kinase p110-alpha/p85-alpha (Homo sapiens, UniProt P42336).
Description: Inhibition of recombinant human N-terminal His6-tagged full length p110alpha/recombinant human full length p85alpha using PIP2 as substrate preincubated for 30 mins followed by substrate addition by HTRF assay
The next data set concerns the target PI3K p110 beta/p85 alpha (Homo sapiens, UniProt P42338).
Data set [2] addresses PI3-kinase p110-delta/p85-alpha (Homo sapiens, UniProt O00329).
Description: Inhibition of recombinant human N-terminal His-tagged full length p110delta/recombinant human full length p85alpha using PIP2 as substrate preincubated for 30 mins followed by substrate addition by HTRF assay
Data set [3] concerns the target Phosphatidylinositol 4,5-bisphosphate 3-kinase catalytic subunit gamma isoform (Homo sapiens, UniProt P48736). Kind of data set: Inhibition of recombinant human N-terminal His6-tagged full length p110gamma using PIP2 as substrate preincubated for 30 mins followed by substrate addition by HTRF assay. For orientation: In TR-FRET formats the signal depends on donor and acceptor labels being close together.

Data set [4] is described as follows: Drug metabolism in rat liver microsomes assessed as disappearance of parent compound at 5 uM after 30 mins in presence of NADPH by UPLC-MS/MS analysis. To be noted: read-out: Drug metabolism. The class given is ADME, microsome. (Liver microsomes are a subcellular fraction often used to study metabolism.)
Data set [5] in a line: Drug metabolism in human liver microsomes assessed as disappearance of parent compound at 5 uM preincubated for 3 mins followed UDPG addition and measured after 120 mins by UPLC-MS/MS analysis. To be noted: read-out: Drug metabolism. The class given is ADME, microsome.
Data set [6] in a line: Drug metabolism in human liver microsomes assessed as disappearance of parent compound at 5 uM after 30 mins in presence of NADPH by UPLC-MS/MS analysis. The format is ADME, microsome. To be noted: read-out: Drug metabolism.
Data set [7] in a line: Drug metabolism in rat liver microsomes assessed as disappearance of parent compound at 5 uM preincubated for 3 mins followed UDPG addition and measured after 120 mins by UPLC-MS/MS analysis. The format is ADME, microsome. As to conditions: read-out: Drug metabolism.

Molecules are shown by their SMILES.

PI3K p110 beta/p85 alpha, sequence (P27986 whole entry): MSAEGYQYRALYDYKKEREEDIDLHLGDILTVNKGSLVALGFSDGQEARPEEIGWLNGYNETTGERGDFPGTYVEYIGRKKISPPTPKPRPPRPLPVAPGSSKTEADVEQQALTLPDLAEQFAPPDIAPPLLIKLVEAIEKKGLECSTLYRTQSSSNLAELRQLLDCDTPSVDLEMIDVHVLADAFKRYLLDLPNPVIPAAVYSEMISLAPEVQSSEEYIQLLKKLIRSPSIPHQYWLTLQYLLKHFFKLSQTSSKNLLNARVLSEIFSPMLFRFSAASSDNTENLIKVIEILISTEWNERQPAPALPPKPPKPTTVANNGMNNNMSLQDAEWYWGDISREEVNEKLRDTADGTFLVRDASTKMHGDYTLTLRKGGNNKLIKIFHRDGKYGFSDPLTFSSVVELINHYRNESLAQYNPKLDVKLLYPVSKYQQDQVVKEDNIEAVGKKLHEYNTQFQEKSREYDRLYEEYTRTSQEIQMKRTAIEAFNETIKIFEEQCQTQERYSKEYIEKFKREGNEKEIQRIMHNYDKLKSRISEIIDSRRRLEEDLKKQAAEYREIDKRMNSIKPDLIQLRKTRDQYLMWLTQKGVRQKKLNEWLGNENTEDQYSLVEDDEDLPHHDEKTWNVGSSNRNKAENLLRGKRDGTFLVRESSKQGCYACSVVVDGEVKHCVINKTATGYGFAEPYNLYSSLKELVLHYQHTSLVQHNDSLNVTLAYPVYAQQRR
PI3K p110 beta/p85 alpha, sequence (P42338 whole entry): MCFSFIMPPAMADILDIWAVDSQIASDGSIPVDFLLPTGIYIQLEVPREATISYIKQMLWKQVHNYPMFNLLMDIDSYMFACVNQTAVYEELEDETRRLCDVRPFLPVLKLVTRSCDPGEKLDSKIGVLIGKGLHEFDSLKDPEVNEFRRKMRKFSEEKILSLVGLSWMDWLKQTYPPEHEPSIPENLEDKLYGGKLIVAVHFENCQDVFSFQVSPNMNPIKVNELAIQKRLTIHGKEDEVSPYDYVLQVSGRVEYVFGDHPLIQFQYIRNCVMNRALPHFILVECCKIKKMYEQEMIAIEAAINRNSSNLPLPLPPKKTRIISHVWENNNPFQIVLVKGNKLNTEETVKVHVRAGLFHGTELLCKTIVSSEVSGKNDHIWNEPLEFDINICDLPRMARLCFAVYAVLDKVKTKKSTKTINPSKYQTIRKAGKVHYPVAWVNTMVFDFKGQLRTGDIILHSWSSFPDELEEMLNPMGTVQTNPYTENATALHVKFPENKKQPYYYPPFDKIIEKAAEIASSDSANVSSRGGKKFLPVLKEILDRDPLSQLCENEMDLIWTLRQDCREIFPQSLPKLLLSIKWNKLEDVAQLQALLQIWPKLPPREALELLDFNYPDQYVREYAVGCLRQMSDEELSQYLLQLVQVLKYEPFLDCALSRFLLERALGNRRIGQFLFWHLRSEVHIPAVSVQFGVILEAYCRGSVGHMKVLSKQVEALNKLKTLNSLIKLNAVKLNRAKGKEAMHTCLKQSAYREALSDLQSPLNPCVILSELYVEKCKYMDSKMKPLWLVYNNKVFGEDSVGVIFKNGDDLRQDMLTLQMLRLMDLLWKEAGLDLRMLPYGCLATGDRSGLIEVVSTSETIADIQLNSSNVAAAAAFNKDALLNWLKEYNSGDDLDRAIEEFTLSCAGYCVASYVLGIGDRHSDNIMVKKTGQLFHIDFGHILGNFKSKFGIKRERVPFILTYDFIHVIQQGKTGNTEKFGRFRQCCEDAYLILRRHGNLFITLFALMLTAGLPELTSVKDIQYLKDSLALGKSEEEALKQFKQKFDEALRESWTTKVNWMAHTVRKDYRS
PI3-kinase p110-alpha/p85-alpha, sequence (P27986 whole entry): as the sequence (P27986 whole entry) above
PI3-kinase p110-alpha/p85-alpha, sequence (P42336 whole entry): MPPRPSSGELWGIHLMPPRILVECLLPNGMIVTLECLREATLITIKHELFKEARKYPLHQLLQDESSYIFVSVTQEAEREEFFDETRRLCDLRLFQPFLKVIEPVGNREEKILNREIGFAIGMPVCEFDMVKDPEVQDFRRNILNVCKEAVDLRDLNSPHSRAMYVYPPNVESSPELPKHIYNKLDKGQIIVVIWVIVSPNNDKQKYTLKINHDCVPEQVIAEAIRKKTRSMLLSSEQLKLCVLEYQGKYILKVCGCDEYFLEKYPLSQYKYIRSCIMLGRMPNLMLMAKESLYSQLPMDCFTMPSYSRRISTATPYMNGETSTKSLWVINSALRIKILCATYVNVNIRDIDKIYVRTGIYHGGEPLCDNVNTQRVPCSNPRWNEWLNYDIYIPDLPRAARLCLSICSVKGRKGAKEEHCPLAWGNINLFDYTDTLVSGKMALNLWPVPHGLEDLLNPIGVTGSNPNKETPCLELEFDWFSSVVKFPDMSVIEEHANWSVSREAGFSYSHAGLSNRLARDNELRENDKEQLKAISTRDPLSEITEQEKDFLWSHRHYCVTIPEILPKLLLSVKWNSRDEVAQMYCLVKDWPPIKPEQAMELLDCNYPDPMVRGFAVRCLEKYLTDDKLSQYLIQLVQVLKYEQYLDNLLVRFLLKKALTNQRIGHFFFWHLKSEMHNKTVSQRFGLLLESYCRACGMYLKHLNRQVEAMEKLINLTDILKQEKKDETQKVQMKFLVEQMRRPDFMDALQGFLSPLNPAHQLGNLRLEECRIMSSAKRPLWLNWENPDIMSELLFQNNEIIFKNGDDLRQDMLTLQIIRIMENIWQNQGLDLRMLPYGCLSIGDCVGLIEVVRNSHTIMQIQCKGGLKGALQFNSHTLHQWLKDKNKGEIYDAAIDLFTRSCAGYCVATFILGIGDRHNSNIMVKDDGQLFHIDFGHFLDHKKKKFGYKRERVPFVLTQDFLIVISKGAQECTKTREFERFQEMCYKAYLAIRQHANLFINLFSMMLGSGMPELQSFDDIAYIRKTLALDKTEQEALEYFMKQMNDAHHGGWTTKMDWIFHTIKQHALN
PI3-kinase p110-delta/p85-alpha, sequence (P27986 whole entry, canonical isoform): as the sequence (P27986 whole entry) above
PI3-kinase p110-delta/p85-alpha, sequence (O00329 whole entry, canonical isoform): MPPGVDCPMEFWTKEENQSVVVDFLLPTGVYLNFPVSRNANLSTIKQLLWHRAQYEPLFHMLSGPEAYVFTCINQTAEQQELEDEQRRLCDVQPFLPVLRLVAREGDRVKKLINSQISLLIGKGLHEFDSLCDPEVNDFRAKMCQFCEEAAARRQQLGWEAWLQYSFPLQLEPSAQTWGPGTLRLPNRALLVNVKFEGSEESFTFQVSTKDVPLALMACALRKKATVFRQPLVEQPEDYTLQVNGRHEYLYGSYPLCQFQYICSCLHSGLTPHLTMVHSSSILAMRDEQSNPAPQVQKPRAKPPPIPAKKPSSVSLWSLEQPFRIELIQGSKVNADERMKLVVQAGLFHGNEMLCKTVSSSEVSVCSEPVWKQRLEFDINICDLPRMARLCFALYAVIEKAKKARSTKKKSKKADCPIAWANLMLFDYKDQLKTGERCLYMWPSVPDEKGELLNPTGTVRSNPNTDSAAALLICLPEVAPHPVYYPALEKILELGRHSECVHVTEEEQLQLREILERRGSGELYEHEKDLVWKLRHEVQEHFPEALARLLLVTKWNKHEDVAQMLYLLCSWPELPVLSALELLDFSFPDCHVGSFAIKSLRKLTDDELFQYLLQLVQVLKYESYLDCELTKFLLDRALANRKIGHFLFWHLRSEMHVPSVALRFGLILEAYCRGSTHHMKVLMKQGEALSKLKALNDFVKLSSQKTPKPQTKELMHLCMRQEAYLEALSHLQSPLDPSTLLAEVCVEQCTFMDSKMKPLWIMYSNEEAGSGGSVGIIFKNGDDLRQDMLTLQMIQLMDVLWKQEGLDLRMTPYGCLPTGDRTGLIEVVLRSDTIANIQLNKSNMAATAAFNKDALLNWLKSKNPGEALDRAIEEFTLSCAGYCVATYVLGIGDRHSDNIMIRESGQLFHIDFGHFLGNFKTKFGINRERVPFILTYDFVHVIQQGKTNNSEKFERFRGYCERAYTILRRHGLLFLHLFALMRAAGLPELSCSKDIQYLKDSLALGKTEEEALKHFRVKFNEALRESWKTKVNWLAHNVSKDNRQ
Phosphatidylinositol 4,5-bisphosphate 3-kinase catalytic subunit gamma isoform, sequence (P48736 whole entry, canonical isoform): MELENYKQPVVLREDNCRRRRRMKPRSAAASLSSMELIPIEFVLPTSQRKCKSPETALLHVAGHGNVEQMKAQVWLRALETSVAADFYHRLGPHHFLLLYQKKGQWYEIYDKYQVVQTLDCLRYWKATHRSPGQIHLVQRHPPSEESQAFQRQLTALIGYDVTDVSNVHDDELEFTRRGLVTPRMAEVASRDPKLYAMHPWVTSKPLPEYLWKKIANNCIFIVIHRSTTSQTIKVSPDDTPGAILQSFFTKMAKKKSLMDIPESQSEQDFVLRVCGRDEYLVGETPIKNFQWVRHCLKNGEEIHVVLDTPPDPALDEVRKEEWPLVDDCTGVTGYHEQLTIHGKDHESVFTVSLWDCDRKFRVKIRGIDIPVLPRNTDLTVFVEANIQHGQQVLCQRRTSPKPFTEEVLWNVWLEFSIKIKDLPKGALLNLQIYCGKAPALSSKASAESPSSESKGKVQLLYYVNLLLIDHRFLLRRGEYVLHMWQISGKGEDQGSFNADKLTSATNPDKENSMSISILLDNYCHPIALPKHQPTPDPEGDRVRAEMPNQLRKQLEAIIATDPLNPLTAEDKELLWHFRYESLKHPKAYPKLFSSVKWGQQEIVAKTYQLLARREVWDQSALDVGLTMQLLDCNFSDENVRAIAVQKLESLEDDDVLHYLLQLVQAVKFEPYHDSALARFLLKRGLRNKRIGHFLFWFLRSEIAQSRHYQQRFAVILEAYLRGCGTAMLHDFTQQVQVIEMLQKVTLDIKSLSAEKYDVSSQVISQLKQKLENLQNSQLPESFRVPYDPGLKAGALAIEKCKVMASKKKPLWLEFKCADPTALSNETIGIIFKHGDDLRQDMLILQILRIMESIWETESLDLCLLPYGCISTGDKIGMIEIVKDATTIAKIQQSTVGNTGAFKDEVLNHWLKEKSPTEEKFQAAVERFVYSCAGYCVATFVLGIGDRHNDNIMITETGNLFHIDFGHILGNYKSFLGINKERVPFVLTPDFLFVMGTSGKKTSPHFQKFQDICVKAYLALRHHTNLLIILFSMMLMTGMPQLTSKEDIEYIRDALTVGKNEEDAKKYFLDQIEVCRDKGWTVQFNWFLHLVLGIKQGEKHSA
Description for PI3K p110 beta/p85 alpha: Inhibition of recombinant human N-terminal His6-tagged full length p110beta/recombinant human full length p85alpha using PIP2 as substrate preincubated for 30 mins followed by substrate addition and HTRF assay

As a reminder, the IC50 is the concentration that inhibits the measured activity by half. Regarding `Cc1ccn2nc([C@H](C)Nc3ncnc(N)c3C#N)n(-c3ccccc3)c(=O)c12`, the IC50 is 2300 nM in data set [1], 120 nM at PI3K p110 beta/p85 alpha, 1 nM in data set [2] and 65 nM in data set [3].

Turning to `C[C@H](Nc1ncnc(N)c1C#N)c1nn2cccc2c(=O)n1-c1ccccc1`, in data set [4], the metabolised at 0.5 h, 5 µM is 16%.

Consider `Cc1ccn2nc([C@H](C)Nc3ncnc4[nH]cc(-c5cc(O)cc(F)c5)c34)n(-c3ccccc3)c(=O)c12`, for which the IC50 in data set [1] is 9 nM; at PI3K p110 beta/p85 alpha, 2.3 nM; in data set [2], 0.2 nM; in data set [3], 0.6 nM.

On to `Cc1ccn2nc([C@H](C)Nc3ncnc(N)c3-c3cnc(N)nc3)n(-c3ccccc3)c(=O)c12`, for which the metabolised at 2 h, 5 µM in data set [5] is 6%. For the same compound, the IC50 on PI3K p110 beta/p85 alpha is 360 nM; in data set [3], 120 nM. Further, the metabolised at 0.5 h, 5 µM in data set [6] is 27%.

With `Cc1ccn2nc([C@H](C)Nc3ncnc(N)c3-c3ccc4cc[nH]c4c3)n(-c3ccccc3)c(=O)c12`, the metabolised at 2 h, 5 µM in data set [5] was found to be 9.6%. Further, the IC50 in data set [1] was 8500 nM; against PI3K p110 beta/p85 alpha it was 140 nM; in data set [3], 420 nM. For the same compound, the results for the metabolised at 0.5 h, 5 µM in data set [4] and in data set [6] were 47% and 50%, respectively.

As to `Cc1ccn2nc([C@H](C)Nc3ncnc(N)c3Cc3cccc(O)c3)n(-c3ccccc3)c(=O)c12`, the values for the IC50 (in data set [1]; against PI3K p110 beta/p85 alpha; in data set [2]) were 6600 nM, 3000 nM and 22 nM, respectively.

For the compound `Cc1ccn2nc([C@H](C)Nc3ncnc(N)c3C(=O)Nc3cccc(O)c3)n(-c3ccccc3)c(=O)c12`, the IC50 in data set [1] stood at 1400 nM; against PI3K p110 beta/p85 alpha, 39 nM; in data set [2], 0.2 nM; in data set [3], 10 nM. For the same compound, the metabolised at 0.5 h, 5 µM in data set [4] came to 42%; in data set [6], 60%.

`Cc1ccn2nc([C@H](C)Nc3ncnc4[nH]cc(Cc5cccc(O)c5)c34)n(-c3ccccc3)c(=O)c12`: the IC50 in data set [1] was found to be 2900 nM; on PI3K p110 beta/p85 alpha it was 210 nM; in data set [2], 1.4 nM; in data set [3] it was 64 nM. Moreover, the metabolised at 0.5 h, 5 µM was determined as 72% in data set [4] and 100% in data set [6].

Regarding `Cc1ccn2nc([C@H](C)Nc3ncnc(N)c3-c3cc(O)cc(C(F)(F)F)c3)n(-c3ccccc3)c(=O)c12`, the concentration for half-maximal inhibition (IC50) is 310 nM in data set [1], 10 nM at PI3K p110 beta/p85 alpha, 0.2 nM in data set [2] and 6.8 nM in data set [3].

For `Cc1ccn2nc([C@H](C)Nc3ncnc4[nH]cc(-c5cn[nH]c5)c34)n(-c3ccccc3)c(=O)c12`, the half-inhibitory concentration (IC50) against PI3K p110 beta/p85 alpha was 4.3 nM; in data set [2], 0.4 nM. Also, the figures for the metabolised at 0.5 h, 5 µM in data set [4] and in data set [6] were 21% and 97%, respectively.

Turning to `Cc1ccn2nc([C@H](C)Nc3ncnc4[nH]cc(Sc5cccc(O)c5)c34)n(-c3ccccc3)c(=O)c12`, the metabolised at 2 h, 5 µM in data set [7] turned out to be 74%; in data set [5], 84%. For the same compound, the results for the IC50 (in data set [1]; against PI3K p110 beta/p85 alpha; in data set [2]) were 770 nM, 170 nM and 1 nM, respectively. The figures for the metabolised at 0.5 h, 5 µM in data set [4] and in data set [6] were 64% and 99%, respectively.

For the compound `Cc1ccn2nc([C@H](C)Nc3ncnc(N)c3-c3cc(O)cc(F)c3)n(-c3ccccc3)c(=O)c12`, the results for the metabolised at 2 h, 5 µM in data set [7] and in data set [5] were 26% and 74%, respectively. The IC50 is 1900 nM in data set [1], 110 nM at PI3K p110 beta/p85 alpha, 0.6 nM in data set [2] and 40 nM in data set [3]. The metabolised at 0.5 h, 5 µM in data set [4] was 75%; in data set [6], 84%.

As for `Cc1ccn2nc([C@H](C)Nc3ncnc4[nH]cc(-c5cc(C(F)(F)F)ccc5O)c34)n(-c3ccccc3)c(=O)c12`, the concentration for half-maximal inhibition (IC50) in data set [1] worked out at 250 nM; against PI3K p110 beta/p85 alpha, 7.3 nM; in data set [2] it was 0.3 nM; in data set [3], 3.3 nM. Further, the metabolised at 0.5 h, 5 µM in data set [4] came to 21%; in data set [6] it was 58%.

In the case of `Cc1ccn2nc([C@H](C)Nc3ncnc4[nH]cc(-c5cccc6cc[nH]c56)c34)n(-c3ccccc3)c(=O)c12`, the IC50 against PI3K p110 beta/p85 alpha is 79 nM; in data set [2], 1.3 nM.

As to `Cc1ccn2nc([C@H](C)Nc3ncnc(N)c3-c3ccc4oc(=O)[nH]c4c3)n(-c3ccccc3)c(=O)c12`, the IC50 at PI3K p110 beta/p85 alpha was found to be 1300 nM; in data set [2], 11 nM; in data set [3], 430 nM.

As to `Cc1ccn2nc([C@H](C)Nc3ncnc4[nH]cc(-c5cnn(C)c5)c34)n(-c3ccccc3)c(=O)c12`, the metabolised at 2 h, 5 µM in data set [7] is 6%; in data set [5] it was 91%. Also, the IC50 in data set [1] was 230 nM; against PI3K p110 beta/p85 alpha it was 22 nM; in data set [2], 0.2 nM; in data set [3], 3.6 nM. Moreover, the figures for the metabolised at 0.5 h, 5 µM in data set [4] and in data set [6] were 36% and 91%, respectively.

Take `Cc1ccn2nc([C@H](C)Nc3ncnc(N)c3-c3cc(O)cc(Cl)c3)n(-c3ccccc3)c(=O)c12`: the metabolised at 2 h, 5 µM in data set [7] is 83%; in data set [5], 97%. Further, the values for the IC50 (in data set [1]; against PI3K p110 beta/p85 alpha; in data set [2]) were 560 nM, 57 nM and 0.2 nM, respectively. Also, the metabolised at 0.5 h, 5 µM was 54% in data set [4] and 55% in data set [6].

As to `COc1cccc(-c2c[nH]c3ncnc(N[C@@H](C)c4nn5ccc(C)c5c(=O)n4-c4ccccc4)c23)c1O`, the metabolised at 2 h, 5 µM was found to be 44% in data set [7] and 90% in data set [5]. Further, the IC50 amounted to 760 nM in data set [1], 14 nM at PI3K p110 beta/p85 alpha, 0.2 nM in data set [2] and 81 nM in data set [3]. For the same compound, the metabolised at 0.5 h, 5 µM came out at 58% in data set [4] and 99% in data set [6].

In the case of `Cc1ccn2nc([C@H](C)Nc3ncnc(N)c3-c3ccc(O)cc3)n(-c3ccccc3)c(=O)c12`, the figures for the metabolised at 2 h, 5 µM in data set [7] and in data set [5] were 21% and 76%, respectively. Further, the IC50 was determined as 8400 nM in data set [1], 1700 nM against PI3K p110 beta/p85 alpha, 22 nM in data set [2] and 160 nM in data set [3]. Also, the metabolised at 0.5 h, 5 µM is 22% in data set [4] and 84% in data set [6].

Turning to `Cc1ccn2nc([C@H](C)Nc3ncnc4[nH]cc(-c5cc(O)cc(NS(C)(=O)=O)c5)c34)n(-c3ccccc3)c(=O)c12`, the metabolised at 2 h, 5 µM in data set [7] worked out at 28%; in data set [5], 94%. The IC50 in data set [1] turned out to be 22 nM; against PI3K p110 beta/p85 alpha, 2.5 nM; in data set [2] it was 0.2 nM; in data set [3] it was 0.7 nM. Further, the metabolised at 0.5 h, 5 µM is 16% in data set [4] and 67% in data set [6].

On to `Cc1ccn2nc([C@H](C)Nc3ncnc(N)c3Sc3cccc(O)c3)n(-c3ccccc3)c(=O)c12`, for which the IC50 in data set [1] was 8400 nM; at PI3K p110 beta/p85 alpha it was 950 nM; in data set [2], 1.8 nM; in data set [3], 45 nM. For the same compound, the metabolised at 0.5 h, 5 µM in data set [4] stood at 94%; in data set [6], 100%.

As to `Cc1ccn2nc([C@H](C)Nc3ncnc4[nH]cc(-c5cccc6[nH]ccc56)c34)n(-c3ccccc3)c(=O)c12`, the IC50 in data set [1] was found to be 410 nM; at PI3K p110 beta/p85 alpha, 12 nM; in data set [2] it was 0.2 nM; in data set [3], 17 nM. Further, the results for the metabolised at 0.5 h, 5 µM in data set [4] and in data set [6] were 74% and 92%, respectively.

As to `Cc1ccn2nc([C@H](C)Nc3ncnc(N)c3-c3cccc(NS(C)(=O)=O)c3)n(-c3ccccc3)c(=O)c12`, the IC50 in data set [1] turned out to be 730 nM; on PI3K p110 beta/p85 alpha, 37 nM; in data set [2], 0.3 nM; in data set [3], 1.7 nM. Further, the metabolised at 0.5 h, 5 µM in data set [4] stood at 32%; in data set [6] it was 97%.

`COc1cc(-c2c[nH]c3ncnc(N[C@@H](C)c4nn5ccc(C)c5c(=O)n4-c4ccccc4)c23)ccc1O`: the IC50 in data set [1] was found to be 1.2 nM; against PI3K p110 beta/p85 alpha, 1.3 nM; in data set [2], 0.2 nM; in data set [3], 0.3 nM.

In the case of `Cc1ccn2nc([C@H](C)Nc3ncnc4[nH]cc(-c5cccc(NS(C)(=O)=O)c5)c34)n(-c3ccccc3)c(=O)c12`, the IC50 in data set [1] was determined as 190 nM; against PI3K p110 beta/p85 alpha, 29 nM; in data set [2] it was 0.3 nM; in data set [3], 3.1 nM. Also, the results for the metabolised at 0.5 h, 5 µM in data set [4] and in data set [6] were 23% and 74%, respectively.

For `Cc1ccn2nc([C@H](C)Nc3ncnc4[nH]cc(C(=O)Nc5cccc(O)c5)c34)n(-c3ccccc3)c(=O)c12`, the IC50 came to 1000 nM in data set [1], 230 nM against PI3K p110 beta/p85 alpha, 2 nM in data set [2] and 13 nM in data set [3].

As to `Cc1ccn2nc([C@H](C)Nc3ncnc4[nH]cc(-c5cccc(F)c5O)c34)n(-c3ccccc3)c(=O)c12`, the IC50 in data set [1] was 1000 nM; at PI3K p110 beta/p85 alpha, 52 nM; in data set [2], 1.9 nM; in data set [3] it was 12 nM. The figures for the metabolised at 0.5 h, 5 µM in data set [4] and in data set [6] were 27% and 41%, respectively.

`Cc1ccn2nc([C@H](C)Nc3ncnc4[nH]cc(-c5ccccc5O)c34)n(-c3ccccc3)c(=O)c12`: the metabolised at 0.5 h, 5 µM in data set [4] came to 72%; in data set [6], 99%. The compound further returned an IC50 in data set [2] of 5.1 nM.

With `Cc1ccn2nc([C@H](C)Nc3ncnc(N)c3-c3cc(O)cc(NS(C)(=O)=O)c3)n(-c3ccccc3)c(=O)c12`, in data set [3], the IC50 stood at 15 nM.

Regarding `Cc1ccn2nc([C@H](C)Nc3ncnc4[nH]cc(-c5ccc(O)cc5)c34)n(-c3ccccc3)c(=O)c12`, the IC50 is 110 nM in data set [1], 4.1 nM against PI3K p110 beta/p85 alpha, 0.4 nM in data set [2] and 0.7 nM in data set [3].

(Values after ChEMBL document CHEMBL4152386, “Discovery of a Novel Inhaled PI3Kδ Inhibitor for the Treatment of Respiratory Diseases” (J Med Chem, 2018).)
